From patent US5573908A, “Adrenergic receptor as a proto-oncogene” (Duke University, priority 1993, dated 1996)
Where a chain is given by its changes, count along the chain named. Values joined by “and” are separate entries in the source; they are usually repeats but may differ in a detail not shown here. Equal entries are not always repeated. “Also recorded” adds a separate entry of the source.

How the values were obtained:
[1] = target: T1, α1B ADR (Mesocricetus auratus, UniProt P18841); assay: NE stimulated PI hydrolysis in RAT-1 cell lines expressing the α1B ADR; assay type: cell-based, hamster
T1 construct: expressed in transfected cells; host or cells: RAT-1 fibroblasts (vector pZIP-NeoSV(X)1), focus-derived, G418-selected lines
T1 sequence (P18841 1-515): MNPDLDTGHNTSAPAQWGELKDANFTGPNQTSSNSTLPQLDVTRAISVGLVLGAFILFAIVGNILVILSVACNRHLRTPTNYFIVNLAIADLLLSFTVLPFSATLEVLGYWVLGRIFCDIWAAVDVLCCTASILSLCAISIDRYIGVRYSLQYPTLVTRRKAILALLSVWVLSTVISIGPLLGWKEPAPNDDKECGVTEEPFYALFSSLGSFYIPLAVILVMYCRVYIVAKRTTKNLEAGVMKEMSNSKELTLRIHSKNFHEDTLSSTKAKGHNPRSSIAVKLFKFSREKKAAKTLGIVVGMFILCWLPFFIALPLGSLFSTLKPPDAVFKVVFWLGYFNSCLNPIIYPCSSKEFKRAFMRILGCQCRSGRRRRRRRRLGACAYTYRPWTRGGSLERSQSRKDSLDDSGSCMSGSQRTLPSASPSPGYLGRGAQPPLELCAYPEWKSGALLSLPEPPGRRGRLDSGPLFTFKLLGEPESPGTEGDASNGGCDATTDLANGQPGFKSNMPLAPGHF
Procedure: (§1) In Table 3, RAT-1 fibroblast cell lines transfected with expression vector alone or derived from transformed foci (α1B ADR or α1B ADR mutant) were selected with G418 (300 μg/ml). Ligand binding was performed on membranes prepared from two clones of each in accordance with known techniques (S. Cotecchia et al., Life Sci. 37, 2389 (1986)). For saturation binding analysis, [^125 ] HEAT concentrations ranged from 10 to 500 pM, nonspecific binding was determined using 1 μM prazosin; in competition experiments, the radioligand concentration was 100 pM. Ligand binding parameters were determined using computerized iterative nonlinear regression analysis (P. Munson, Methods in Enzymol. 92, 5432 (1983)). For assessment of receptor coupling to PI hydrolysis, cells were plated in 30 mm dishes, and labeled overnight with 3 μCi/ml of myo-[2-^3 II(N)]-inositol (1Ci=37 GBq; NEN Research Products) in DMEM containing 3.3% FBS in accordance with known techniques (S. Cotecchia et al., Proc. Natl. Acad. Sci. USA 87, 2896 (1990)). After 40 minute stimulation of cells with 10 μM norepinephrine (NE), inositol phosphates were extracted, and separated on AG 1-X8 anion exchange columns (BioRad Labs) in accordance with known techniques (S. Cotecchia et al., Proc. Natl. Acad. Sci. USA 87, 2896 (1990)). Total inositol phosphates were eluted with 1M ammonium formate/0.1M formic acid. […]

[2] = target: T2, α1B ADR mutant (Mesocricetus auratus, UniProt P18841, A293L/K290H/R288K); assay: Ligand binding on membranes of RAT-1 fibroblast cell lines expressing the α1B ADR mutant; set-up: species or system hamster; details: competition with 100 pM [125I] HEAT; membranes, two clones; read-out: NE Ki
T2 construct: expressed in transfected cells; host or cells: RAT-1 fibroblasts (vector pZIP-NeoSV(X)1), focus-derived, G418-selected lines
T2 sequence (P18841 1-515 R288K/K290H/A293L): T1 sequence (P18841 1-515) with R288K, K290H, A293L
Procedure: In Table 3, RAT-1 fibroblast cell lines transfected with expression vector alone or derived from transformed foci (α1B ADR or α1B ADR mutant) were selected with G418 (300 μg/ml). Ligand binding was performed on membranes prepared from two clones of each in accordance with known techniques (S. Cotecchia et al., Life Sci. 37, 2389 (1986)). For saturation binding analysis, [^125 ] HEAT concentrations ranged from 10 to 500 pM, nonspecific binding was determined using 1 μM prazosin; in competition experiments, the radioligand concentration was 100 pM. Ligand binding parameters were determined using computerized iterative nonlinear regression analysis (P. Munson, Methods in Enzymol. 92, 5432 (1983)). For assessment of receptor coupling to PI hydrolysis, cells were plated in 30 mm dishes, and labeled overnight with 3 μCi/ml of myo-[2-^3 II(N)]-inositol (1Ci=37 GBq; NEN Research Products) in DMEM containing 3.3% FBS in accordance with known techniques (S. Cotecchia et al., Proc. Natl. Acad. Sci. USA 87, 2896 (1990)). After 40 minute stimulation of cells with 10 μM norepinephrine (NE), inositol phosphates were extracted, and separated on AG 1-X8 anion exchange columns (BioRad Labs) in accordance with known techniques (S. Cotecchia et al., Proc. Natl. Acad. Sci. USA 87, 2896 (1990)). Total inositol phosphates were eluted with 1M ammonium formate/0.1M formic acid. Rmax indicates the percentage increase of total labeled inositol phosphates over basal levels following NE stimulation.

[3] = system: NIH 3T3 fibroblasts transfected with expression vector alone; assay: Focus formation in NIH 3T3 fibroblasts transfected with expression vector alone; assay type: cell-based; details: NIH 3T3 transfected with vector alone; 10 μM NE supplemented daily, 5% FBS (Table 1)
[4] = system: α1B -ADR; details: NE alone, serum free medium; data not shown
[5] = system: RAT-1 fibroblasts transfected with α1B -ADR c-DNA; assay: Focus formation in RAT-1 fibroblasts transfected with α1B-ADR c-DNA; assay type: cell-based
Procedure: Transfection was carried out as follows: RAT-1 fibroblasts were seeded at a density of 2×10^5 cells in Dulbecco's modified Eagle's medium (DMEM) (Gibco) containing 5% fetal bovine serum (FBS) in 100 mm dishes. […] After 16 hours, the DNA precipitate was removed, the cells washed and grown for 24 hours in complete medium. Cells were split 1:5, allowed to attach overnight and then cultured in DMEM with 5% FBS alone, supplemented with 10 μM norepinephrine (NE) or G418 (300 μg/ml). Dishes were supplemented with NE daily, and fed every 3 days with fresh medium.

[6] = target: T2, α1B ADR mutant; assay: NE stimulated PI hydrolysis in RAT-1 cell lines expressing the α1B ADR mutant; assay type: cell-based, hamster
Procedure: as §1

[7] = system: RAT-1 fibroblast cell lines expressing the α1B -ADR; assay: cells; details: 600 h, read-out: final cell density (day 25) relative to control
Procedure: Growth curves of G418 selected RAT-1 fibroblast cell lines transfected with vector alone (A), or expressing the α1B -ADR (B) or α1B -ADR mutant (C) in the absence (------) or presence (---) of norepinephrine (NE). Cells were plated in 100mm dishes at a density of 5×10^5 cells per dish in DMEM containing 5% FBS. After 24 hours, half the dishes received daily supplementation with 10 μM NE, and all dishes were fed with fresh medium every 2-3 days. At each time point, cells were trypsinized and cell counts determined using an electronic particle counter (Coulter Electronics). Values represent the mean of duplicate determinations of a representative experiment, which agree within 6%.
To quantitate receptor-mediated effects on mitogenesis, basal and NE-stimulated growth rates were assessed on cell lines expressing the wild type or mutant α1B -ADRs.

[8] = system: RAT-1 fibroblast cell line derived from a single transformed focus expressing the α1B -ADR; assay: Morphology of focus-derived RAT-1 fibroblast cell line expressing the α1B-ADR; assay type: cell-based; details: 10 μM NE, 36 hours, 5% FBS
[9] = system: NIH 3T3 fibroblasts transfected with α1B ADR; assay: Focus formation in NIH 3T3 fibroblasts transfected with α1B-ADR c-DNA; assay type: cell-based; details: NIH 3T3 transfected with α1B ADR; 10 μM NE supplemented daily, 5% FBS (Table 1)
[10] = 10 μM NE, 40 minute, increase of total labeled inositol phosphates over basal, two clones

`NC[C@H](O)c1ccc(O)c(O)c1` [NE, norepinephrine] was tested, and the “NE Stimulated PI Hydrolysis Rmax” value [1, 10] was 758 % increase and 410 % increase, the “increase in total inositol phosphates following NE stimulation” value ([1]; focus-derived fibroblasts expressing α1B-ADR) was 400 to 800% and the Ki [2] was 42 nM and 47 nM. For the same compound, the “Foci No. +NE” value [3] was 12, the “increase in DNA synthetic activity” value [4] was 11 fold and the “Agonist-induced foci as share of transfected clones” value ([5]; RAT-1, relative to number of G418 resistant colonies (40-60/dish)) was 15-25%. For the same compound, the “Foci No. +NE” value ([5]; RAT-1 transfected with α1B ADR, 10 μM NE supplemented daily, 5% FBS, initially transfected cells (Table 1)) was 8, the “Foci No. +NE” value ([5]; focus derived RAT-1 cell lines, α1B ADR, 10 μM NE, 3 weeks of growth, two clones (Table 2)) was 75 and 80 and the “NE Stimulated PI Hydrolysis Rmax” value [6, 10] was 861 % increase and 954 % increase. For the same compound, the “increase in inositol phosphates induced by NE” value ([6]; cell lines expressing the α1B-ADR mutant) was 900 to 1000%, the fold induction at 10 µM [7] was 1.9 and the “cellular morphology / phenotype in the presence of agonist” value [8] was “reverted to the transformed phenotype; also recorded: agonist-dependent alteration in cellular morphology with a loss in cellular orientation and decreased adhesiveness”. For the same compound, the “Foci No. +NE” value [9] was 85.
